Results from patent US20210228560A1 (Centogene IP GmbH, priority 2011, published 2021).
Entries after “also recorded” stand apart in the source; their conditions may differ.

Tests used:
[1] = system: acid α-glucosidase mutants; type: cell-based
Description: (§1) A bacterial clone containing the full length cDNA of […] (IRATp970C0971D, aligned to accession no. NM_000152.3, GeneBank) was received form ImaGenes GmbH, Berlin, Germany. Amplification was performed with the primers 5′-TAGGAGCTGTCCAGGCCATC-3′ (SEQ ID NO:3) and 5′-GAGAGACTAACACACTCCGC-3′ (SEQ ID NO:4). The PCR was carried out using iProof DNA Polymerase (BioRad). The cDNA was subcloned into pCRII TA TOPO vector (Invitrogen). Prior to ligation, the cDNA insert was incubated with Taq polymerase (Qiagen) to add a poly (A) overhang at the 3′-end for TA-cloning. For expression, the GAA cDNA was ligated into target vector pcDNA3.1/V5-His6 (Invitrogen) using sticky end ligation utilizing unique restriction sites (HindIII, XhoI) offered by both vectors multiple cloning sites.
(§2) Sample preparation was carried out analogously to the α-galactosidase A recordings. As substrate, a 1.3 mg 4-Methylumbelliferyl-α-D-Glukopyranoside/ml solution (in sodium acetate buffer, pH 4.0) was used and 5 μg sample/reaction were added. The reaction was incubated for 60 minutes at 37° C. and stopped with 1M Glycine-NaOH, pH 10.5.

[2] = target: acid α-glucosidase mutants (Homo sapiens, UniProt P10253, Y575S); type: cell-based; conditions: NB-DNJ and Ambroxol combination; FIG. 7A
Description: as §1, §2

[3] = target: GLA mutants (alpha-galactosidase A) (Homo sapiens, UniProt P06280, T410I); conditions: GLA mutant T410I; Ambroxol in combination with DGJ
[4] = target: GLA mutants (alpha-galactosidase A) (Homo sapiens, UniProt P06280, R363H); conditions: GLA mutant R363H; Ambroxol in combination with DGJ
[5] = target: GLA mutants (alpha-galactosidase A) (Homo sapiens, UniProt P06280, R301Q); conditions: GLA mutant R301Q; Ambroxol in combination with DGJ
[6] = target: GLA mutants (alpha-galactosidase A) (Homo sapiens, UniProt P06280, H225R); conditions: GLA mutant H225R; Ambroxol in combination with DGJ
[7] = target: GLA mutants (alpha-galactosidase A) (Homo sapiens, UniProt P06280, E59K); conditions: GLA mutant E59K; Ambroxol in combination with DGJ
[8] = target: GLA mutants (alpha-galactosidase A) (Homo sapiens, UniProt P06280, M51I); conditions: GLA mutant M51I; Ambroxol in combination with DGJ
[9] = target: GLA mutants (alpha-galactosidase A) (Homo sapiens, UniProt P06280, R356W); conditions: GLA mutant R356W; Ambroxol in combination with DGJ
[10] = target: T1, Wild type α-galactosidase A (Replagal®, agalsidase alfa) (Homo sapiens, UniProt P06280); experiment: Inhibition of agalsidase alfa (Replagal), cell free; type: biochemical; conditions: for reduction of the enzyme activity, Ambroxol only: FIG. 8 inlay
T1 construct: purchased Shire Pharmaceuticals Replagal
T1 sequence (P06280 32-429): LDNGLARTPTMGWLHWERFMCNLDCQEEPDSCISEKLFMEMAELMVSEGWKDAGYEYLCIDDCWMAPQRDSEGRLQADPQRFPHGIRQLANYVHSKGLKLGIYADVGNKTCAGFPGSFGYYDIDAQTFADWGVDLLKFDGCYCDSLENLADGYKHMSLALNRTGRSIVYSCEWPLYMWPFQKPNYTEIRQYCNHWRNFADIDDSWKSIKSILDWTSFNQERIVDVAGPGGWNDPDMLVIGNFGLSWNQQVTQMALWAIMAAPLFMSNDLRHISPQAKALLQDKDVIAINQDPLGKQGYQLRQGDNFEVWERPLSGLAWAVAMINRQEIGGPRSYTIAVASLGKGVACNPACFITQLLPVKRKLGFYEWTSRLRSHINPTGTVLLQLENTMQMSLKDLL

Sequence of GLA mutants (alpha-galactosidase A) (Homo sapiens, UniProt P06280, R301Q) (P06280 32-429 R301Q): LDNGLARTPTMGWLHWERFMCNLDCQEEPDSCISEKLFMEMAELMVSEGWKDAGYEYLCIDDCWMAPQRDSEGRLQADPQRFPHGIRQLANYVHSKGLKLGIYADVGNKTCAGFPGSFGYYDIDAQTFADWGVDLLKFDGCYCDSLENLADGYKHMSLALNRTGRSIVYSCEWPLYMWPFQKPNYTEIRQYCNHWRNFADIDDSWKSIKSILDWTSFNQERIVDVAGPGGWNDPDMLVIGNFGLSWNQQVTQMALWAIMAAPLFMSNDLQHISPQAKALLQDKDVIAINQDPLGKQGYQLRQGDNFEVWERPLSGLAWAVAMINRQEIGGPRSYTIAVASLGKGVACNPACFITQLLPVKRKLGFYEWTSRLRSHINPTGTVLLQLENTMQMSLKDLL
Sequence of GLA mutants (alpha-galactosidase A) (Homo sapiens, UniProt P06280, T410I) (P06280 32-429 T410I): as the sequence (P06280 32-429 R301Q) above, with Q270R, T379I counted along it
Sequence of GLA mutants (alpha-galactosidase A) (Homo sapiens, UniProt P06280, R356W) (P06280 32-429 R356W): as the sequence (P06280 32-429 R301Q) above, with Q270R, R325W counted along it
Sequence of GLA mutants (alpha-galactosidase A) (Homo sapiens, UniProt P06280, E59K) (P06280 32-429 E59K): as the sequence (P06280 32-429 R301Q) above, with E28K, Q270R counted along it
Sequence of GLA mutants (alpha-galactosidase A) (Homo sapiens, UniProt P06280, M51I) (P06280 32-429 M51I): as the sequence (P06280 32-429 R301Q) above, with M20I, Q270R counted along it
Sequence of GLA mutants (alpha-galactosidase A) (Homo sapiens, UniProt P06280, R363H) (P06280 32-429 R363H): as the sequence (P06280 32-429 R301Q) above, with Q270R, R332H counted along it
Sequence of acid α-glucosidase mutants (Homo sapiens, UniProt P10253, Y575S) (P10253 70-952 Y575S): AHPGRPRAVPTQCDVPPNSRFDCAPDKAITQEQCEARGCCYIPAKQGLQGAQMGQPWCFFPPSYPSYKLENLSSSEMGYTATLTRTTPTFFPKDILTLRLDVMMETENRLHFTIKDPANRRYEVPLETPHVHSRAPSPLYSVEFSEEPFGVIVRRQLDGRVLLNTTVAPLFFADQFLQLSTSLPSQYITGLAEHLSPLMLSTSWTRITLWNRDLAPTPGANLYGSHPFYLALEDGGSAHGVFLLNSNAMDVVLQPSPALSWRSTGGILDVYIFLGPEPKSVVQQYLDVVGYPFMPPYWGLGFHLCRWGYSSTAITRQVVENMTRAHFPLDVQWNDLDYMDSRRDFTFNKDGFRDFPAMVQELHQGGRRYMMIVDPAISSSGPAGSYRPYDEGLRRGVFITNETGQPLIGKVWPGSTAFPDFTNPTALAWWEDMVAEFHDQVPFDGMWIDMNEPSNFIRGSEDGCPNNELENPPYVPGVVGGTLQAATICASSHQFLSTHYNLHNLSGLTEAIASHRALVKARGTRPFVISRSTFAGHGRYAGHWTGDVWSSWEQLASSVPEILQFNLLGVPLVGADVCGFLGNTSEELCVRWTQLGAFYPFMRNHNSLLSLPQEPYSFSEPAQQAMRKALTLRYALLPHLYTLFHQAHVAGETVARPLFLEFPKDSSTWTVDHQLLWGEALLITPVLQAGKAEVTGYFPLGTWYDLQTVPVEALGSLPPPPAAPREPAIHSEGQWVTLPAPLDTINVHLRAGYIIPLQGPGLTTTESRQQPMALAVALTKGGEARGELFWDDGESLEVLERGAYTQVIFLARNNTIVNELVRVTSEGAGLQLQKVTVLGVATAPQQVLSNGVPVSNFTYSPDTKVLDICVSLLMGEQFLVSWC
Sequence of GLA mutants (alpha-galactosidase A) (Homo sapiens, UniProt P06280, H225R) (P06280 32-429 H225R): as the sequence (P06280 32-429 R301Q) above, with H194R, Q270R counted along it

additive Ambroxol effect demonstrated [3]: * (*p≤0.1)
additive Ambroxol effect demonstrated [4]: *** (***p≤0.01)
additive Ambroxol effect demonstrated [5]: **** (****p≤0.005)
additive Ambroxol effect demonstrated [6]: ** (**p≤0.05)
additive Ambroxol effect demonstrated [7]: **** (****p≤0.005)
additive Ambroxol effect demonstrated [8]: ** (**p≤0.05)
additive Ambroxol effect demonstrated [9]: **** (****p≤0.005)
effect of Ambroxol on the inhibition of WT α-galactosidase A by DGJ ([10]; 40 μM Ambroxol): no effect
reduction of the enzyme activity, Ambroxol only ([10]; pH 4.5): No reduction
reduction of the enzyme activity, Ambroxol only ([10]; pH 6.7): No reduction
Structure (SMILES): Nc1c(Br)cc(Br)cc1CN[C@H]1CC[C@H](O)CC1 [Ambroxol, 2-amino-3,5-dibromo-N-[trans-4-hydroxycyclohexyl]benzylamine]
activity of acid α-glucosidase, Ambroxol in combination with NB-DNJ ([1]; 20 μM NB-DNJ + 40 μM Ambroxol compared to 20 μM NB-DNJ alone, FIG. 7): enhanced
enzyme activity of mutations Y455F, P545L and L552P, combined treatment ([1]; 20 μM NB-DNJ and 40 μM Ambroxol, FIG. 7A): significantly increased
activity of mutant acid α-glucosidase, Ambroxol alone ([1]; 40 μM Ambroxol without chaperone): not leading to an enhancement
activity when additionally treated with Ambroxol ([1]; mutations Y455F, P545L and L552P, compared to NB-DNJ): tendency for higher activities
responsiveness of mutation Y575S [2]: clear tendency to be responsive only towards the combination
effect of Ambroxol alone on the enzyme in the cell free assay ([10]; cell free): not inhibited; also recorded: neither an inhibitory nor a stimulating effect
